Assay [1] concerns Acinetobacter baumannii. As to the kind of experiment: Antibacterial activity against Acinetobacter baumannii MB5973 measured after overnight incubation. It counts as functional.
In assay [2] the test system is Escherichia coli. The experiment in a line: Antibacterial activity against Escherichia coli ATCC 25922 measured after overnight incubation. It is filed as functional, organism-based.
Assay [3] relates to Klebsiella pneumoniae. As to the kind of experiment: Antibacterial activity against Klebsiella pneumoniae ATCC 700603 measured after overnight incubation. It is filed as functional, organism-based.
The test system of assay [4] is Pseudomonas aeruginosa. As to the kind of experiment: Antibacterial activity against Pseudomonas aeruginosa MB5919 measured after overnight incubation. It counts as functional, organism-based.

These results are taken from ChEMBL document CHEMBL4834418, “Pentaminomycins F and G, Nonribosomal Peptides Containing 2-Pyridylalanine” (2021).

Converted amounts (≈) assume the structure as drawn. The source made the active and inactive calls. No cut-off for these calls is given here. Starred links: 1 amine or outer side, 2 acyl side, 3 side chain; linkers in the order of their positions; H or OH if unused. Non-standard residues stand in square brackets, D forms with d. Residues, ends and D or L forms follow the SMILES beside them. X1 = N=C(N)N(O)CCC[C@H](N[*:1])C(=O)[*:2]

With `CC(C)C[C@@H]1NC(=O)[C@@H](Cc2ccccc2)NC(=O)[C@H](CCCN(O)C(=N)N)NC(=O)[C@H](Cc2c[nH]c3ccccc23)NC(=O)[C@@H](C(C)C)NC1=O`, the MIC in assay [1] was 16 µg/mL (≈ 22.3 µM). Further, the result in assay [2], in assay [3] and in assay [4] was inactive.
Take `CC(C)C[C@@H]1NC(=O)[C@@H](CC(C)C)NC(=O)[C@H](CCCN(O)C(=N)N)NC(=O)[C@H](Cc2c[nH]c3ccccc23)NC(=O)[C@@H](C(C)C)NC1=O` (cyclo(L[dV]W[X1][dL])): the minimal inhibitory concentration (MIC) in assay [1] stood at 16 µg/mL (≈ 23.4 µM). Also, the result in assay [2], in assay [3] and in assay [4] was inactive.
